≈ marks a conversion by molar mass, not a printed value. Ends that are not written are not given here.
Key:
[1] = test system: A. baumannii KCCM 40203; experiment: microbe, parasite or virus in culture; conditions: Acinetobacter baumannii, KCCM40203, read-out: MIC at resistance induction condition, A. baumannii KCCM 40203
Method: (§1) To assess antimicrobial activity, the MIC50 and MIC90 were measured using broth microdilution following CLSI guidelines. […] Each experiment was performed in triplicate. Meropenem (Sigma, Darmstadt, Germany) and colistin were used as control antibiotics. Cation-adjusted Mueller–Hinton broth (CAMHB) (Becton, Dickinson and Company, Franklin Lakes, USA) with supplied calcium (50 mg/L) and magnesium (10 mg/L) was used for the CLSI-test condition. Bacteria in midlog phase and peptides were separately diluted in CAMHB. The bacteria and peptide solutions were then mixed in 96-well polyethylene plates (SPL, Gyeonggi-do, Korea) and incubated for 18 h at 37 °C. The final concentration for bacteria was 5 × 10^5 CFU/ml. […] The MIC was defined to be the lowest concentration of peptide without visible turbidity by comparing with control antibiotics with the unaided eye. […] Each experiment was performed in triplicate. MICs in albumin and acetic acid solutions were measured using the same protocol but with 0.2% bovine serum albumin (Bovogen, Keilor, Australia), 0.01% acetic acid (Merck, New Jersey, USA), and CAMHB with both calcium and magnesium. In addition, MICs used in the antibiotic resistance acquisition test, the outer–inner membrane permeation test, and the transmembrane potential test and for FE-SEM were individually determined. The final bacterial concentrations used were as follows: for resistance acquisition, optical density (OD) 0.01; for outer–inner membrane permeability assays (LB), OD 0.1; for the transmembrane potential test, 1 × 10^8 CFU/ml (OD 0.171); […]. Inhibitory activity unidentifiable by direct observation was determined by counting the CFUs. Each experiment was performed at least twice.
A. baumannii (KCCM 40203) and S. aureus (KCTC 1621) were selected as drug-sensitive bacteria. Mutation-susceptible tetracycline (an antibiotic that targets ribosomes) (Sigma, Darmstadt, Germany) and ofloxacin (an antibiotic that targets DNA gyrase) (Sigma, Darmstadt, Germany), mutation-resistant colistin (an antibiotic that targets lipopolysaccharide) (Sigma, Darmstadt, Germany) and vancomycin (an antibiotic that targets peptidoglycan pentapeptide) (Sigma, Darmstadt, Germany) were used as control antibiotics. The MIC for each antibiotic against bacteria (at OD 0.01) was measured. […] The MIC for each passage was confirmed by additional broth microdilutions under CLSI guidelines. Resistance acquisition was induced for 30 days (30 passages), and each MIC value was confirmed by an independent MIC test against bacteria at each passage.

[2] = test system: S. aureus KCTC 1621; experiment: microbe, parasite or virus in culture; type: cell-based; conditions: Staphylococcus aureus, KCTC1621, read-out: MIC at resistance induction condition, S. aureus KCTC 1621
Method: as §1
A. baumannii (KCCM 40203) and S. aureus (KCTC 1621) were selected as drug-sensitive bacteria. […] The MIC for each antibiotic against bacteria (at OD 0.01) was measured. […]

[3] = test system: S. aureus; set-up: method as in 7 sources, one per row (each row's own in cited_ref): ref 39 (a number printed in a supplementary file, which may have a reference list of its own: not looked up in the article's list) ||| ref 40 (a number printed in a supplementary file, which may have a reference list of its own: not looked up in the article's list) ||| ref 41 (a number printed in a supplementary file, which may have a reference list of its own: not looked up in the article's list) ||| ref 42 (a number printed in a supplementary file, which may have a reference list of its own: not looked up in the article's list) ||| ref 43 (a number printed in a supplementary file, which may have a reference list of its own: not looked up in the article's list) ||| ...; conditions: 1 × 10^5 ~ 3.5 × 10^5 cfu/ml, MHB; cited from earlier work
[4] = test system: P. aeruginosa; set-up: method as in 7 sources, one per row (each row's own in cited_ref): ref 39 (a number printed in a supplementary file, which may have a reference list of its own: not looked up in the article's list) ||| ref 40 (a number printed in a supplementary file, which may have a reference list of its own: not looked up in the article's list) ||| ref 41 (a number printed in a supplementary file, which may have a reference list of its own: not looked up in the article's list) ||| ref 42 (a number printed in a supplementary file, which may have a reference list of its own: not looked up in the article's list) ||| ref 44 (a number printed in a supplementary file, which may have a reference list of its own: not looked up in the article's list) ||| ...; conditions: 1 × 10^5 ~ 3.5 × 10^5 cfu/ml, MHB; cited from earlier work
[5] = test system: MDR S. aureus; experiment: microbe, parasite or virus in culture
How it was run: (§2)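 CLSI broth microdilution, CAMHB + Ca 50 mg/L, Mg 10 mg/L. Mid-log inoculum 5 × 10^5 CFU/ml final, 18 h, 37 °C. MIC = lowest peptide conc. with no visible turbidity by eye; triplicate.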

[6] = test system: MDR E. faecalis; experiment: microbe, parasite or virus in culture
How it was run: as §2

[7] = test system: MDR P. aeruginosa; experiment: microbe, parasite or virus in culture
How it was run: as §2

[8] = test system: MDR A. baumannii; experiment: microbe, parasite or virus in culture
How it was run: as §2

[9] = test system: E. aerogenes NCCP 16285; experiment: microbe, parasite or virus in culture; conditions: Klebsiella aerogenes, NCCP16285, read-out: MIC, E. aerogenes NCCP 16285
Method: as §1

[10] = test system: K. pneumonia strains; experiment: microbe, parasite or virus in culture; conditions: Klebsiella pneumoniae, read-out: MIC, K. pneumonia NCCP 16125
Method: Twenty-six A. baumannii strains were clinically isolated and gifted to us by the Kyungpook National University School of Medicine. One A. baumannii strain (ATCC 17978) was purchased and gifted to us by Kyungpook National University School of Medicine. One A. baumannii strain and 10 K. pneumoniae strains (NCCP) were purchased from the National Culture Collection for Pathogens.
as §1

[11] = Maximum soluble concentration / turbidity; type: physicochemical
Method: Supplementary Methods Bacteria preparation, Antimicrobial peptides preparation, Minimal-inhibitory-concentration measurements, Hemolysis-activity measurements, Tryptophan fluorescence measurements, Isothermal titration calorimetry measurements, Bacteria membrane ion permeation measurements, Outer-inner membrane permeation, Field-emission scanning electron microscopy and Antimicrobial kinetics were performed as described in Materials and Methods. Liposome (LUV) preparation. Bacterial-membrane-mimic DMPC/DMPG unilamellar vesicles (LUV) and mammalian- membrane-mimic PC/cholesterol vesicles with 100-nm diameters were prepared by extrusion. LiposoFast Liposome Factory Basic unit with stabilizer (Avestin, Ottawa, Canada) was used to extrude liposomes 50 times through a polycarbonate membrane filter (pore diameter, 100 nm; filter diameter, 0.75 inches) (Avestin). […] rac-(1-glycerol)) (sodium salt) (DMPG) (Avanti, Alabama, USA); 1,2-Dimyristoyl-sn-glycero-3-phosphocholine (DMPC) (Avanti); and cholesterol (Sigma, Darmstadt, Germany) were used. For circular dichroism, isothermal titration calorimetry, tryptophan fluorescence, and dynamic light scattering experiments, liposomes were reconstructed and resuspendedwith phosphate-buffered saline (PBS; Welgene Inc, Gyeongsangbuk-do, Korea). For calcein-permeation tests, liposomes were reconstructed with calcein solutions (80 mM, 40 mM, 30 mM, 20 mM, and 10 mM) (Sigma, Darmstadt, Germany), purified with Sephadex-G50 columns (Pharmacia biotech, Stockholm, Sweden), and resuspended with PBS. Maximum-soluble -concentration measurements. […] turbidity with PBS. The lowest concentration of peptide without visible turbidity was determined to be the maximu m soluble concentration. Each experiment was performed at least twice. Circular dichroism (CD) spectrum. DMPC/PG -liposome, PC/cholesterol -liposome, and peptide stock solutions were diluted in PBS. For circular dichroism, PBS with neither liposome nor peptides was also prepared. Liposomes and peptides were mixed to […] Samples were transferred into type J/1 cuvettes (Jasco, Tokyo, Japan). Cuvettes were placed into the J -815 circular -dichroism spectrometer (Jasco, Tokyo, Japan). Measurement parameters were as follows: wavelength, 190 -260 nm; data pitch, 0.2 nm; bandwidth, 1.00 nm; […] Each experiment was performed in triplicate. Data below 197 nm was not analyzed because o f experimental difficulties in obtaining those spectra. Each experiment was performed at least twice. Artificial membrane calcein permeation measurements. Calcein fluorescence was used to measure peptide -induced liposome permeation. Calcein solutions (10 mM, 20 mM, or 60 mM) containing PC/PG liposomes and peptides were diluted in PBS ( ×1, ×2, ×3, ×8). […] Liposome solutions (180 μl) were transferred to wells of black, clear -bottomed 96 -well plates (Costar, New York, USA). Peptide […] Liposome-containing plates and peptide -containing plates were inserted into a Flexstation 3 Multi -Mode Microplate Reader (Molecular Devices, California, USA). Peptide solutions (20 μl) were transferred and mixed with liposome solution automatical ly after 30 sec. […] Measurement parameters were as follows: excitation, 490 nm; emission, 520 nm; temperature, 37 °C. […] was transferred and mixed with the liposome -peptide solu tions automatically after 300 sec to acquire fluorescence at maximum leakage. […] Fluorescence measured between 0 -300 sec after addition of 0 μg/ml peptide was considered the baseline. Each experiment was performed at least twice. Dynamic light scattering (DLS) measurements. Dynamic light scattering was used to measure peptide -induced liposome volume changes. PC/PG -liposome stock solutions and peptides were resuspended in PBS. Liposomes and peptides were mixed to […]

[12] = test system: human red blood cells; experiment: Hemolytic activity; type: cell-based; conditions: red cells of human, 18 h
How it was run: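 Haemolysis was read as A540 of cleared supernatants after 18 h at 37 °C, with 0% and 100% lysis set by peptide-free PBS and 1% Triton X-100 and melittin as positive control. Human RBCs were at 4% final, peptide serially diluted 100–0.78 μM; three replicates.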

[13] = CAMHB plus 0.2% bovine serum albumin and 0.01% acetic acid, values marked * in Table 2

For `CN(C)[C@@H]1C(O)=C(C(N)=O)C(=O)[C@@]2(O)C(O)=C3C(=O)c4c(O)cccc4[C@@](C)(O)[C@H]3C[C@@H]12` [Tetracycline], the MIC [1] was 1.25 µM (≈ 0.556 µg/mL) and the MIC [2] was 1.25 µM (≈ 0.556 µg/mL).
For “KRRWRIWLV (not fully specified (C-terminus))”, the “MIC (Strain 2), S. aureus ATCC 25923” value [3] is listed as 1.5 µM and the “MIC (Strain 1), P. aeruginosa H103” value [4] is listed as 3.0 µM.
Work on `CC1COc2c(N3CCN(C)CC3)c(F)cc3c(=O)c(C(=O)O)cn1c23` (stereo not drawn) [Ofloxacin] yielded an MIC [1] of 1.25 µM (≈ 0.452 µg/mL) and an MIC [2] of 1.25 µM (≈ 0.452 µg/mL).
For “KFKWWRMLI (not fully specified (C-terminus))”, the “MIC (Strain 2), S. aureus ATCC 25923” value [3] is given as 1.2 µM and the “MIC (Strain 1), P. aeruginosa H103” value [4] is given as 2.6 µM.
`CN[C@H](CC(C)C)C(=O)N[C@H]1C(=O)N[C@@H](CC(N)=O)C(=O)N[C@H]2C(=O)N[C@H]3C(=O)N[C@H](C(=O)N[C@H](C(=O)O)c4cc(O)cc(O)c4-c4cc3ccc4O)[C@H](O)c3ccc(c(Cl)c3)Oc3cc2cc(c3O[C@@H]2O[C@H](CO)[C@@H](O)[C@H](O)[C@H]2O[C@H]2C[C@](C)(N)[C@H](O)[C@H](C)O2)Oc2ccc(cc2Cl)[C@H]1O` [Vancomycin, reference compound] gave an MIC ([5]; Staphylococcus aureus, KCCM40510, 18 h, read-out: Minimum inhibitory concentrations, MDR S. aureus) of 1.25 µM (≈ 1.81 µg/mL), an MIC ([6]; Enterococcus faecalis, ATCC51575, 18 h, read-out: Minimum inhibitory concentrations, MDR E. faecalis) of over 20 µM and an MIC ([7]; Pseudomonas aeruginosa, CCARM2180, 18 h, read-out: Minimum inhibitory concentrations, MDR P. aeruginosa) of over 5 µM. It also gave an MIC ([8]; Acinetobacter baumannii, ATCCBAA1605, 18 h, read-out: Minimum inhibitory concentrations, MDR A. baumannii) of over 5 µM, an MIC [1] of 1.25 µM (≈ 1.81 µg/mL) and an MIC [2] of 1.25 µM (≈ 1.81 µg/mL). The MIC [9] was over 5 µM and the MIC [10] was over 5 µM.
For “WKWLKKWIK (not fully specified (C-terminus))”, the “MIC (Strain 2), S. aureus ATCC 25923” value [3] is listed as 0.7 µM and the “MIC (Strain 1), P. aeruginosa H103” value [4] is listed as 2.9 µM.
For GVLVWFRRR-NH2 [Ptg C-ter 2], the solubility ([11]; distilled water) was under 500 µM, the “Maximum soluble concentration in PBS” value ([11]; lyophilized peptide reconstructed in PBS at 200-6.25 μM, visible turbidity checked every 12 h for 5 days, at least twice) was 100 µM and the “MIC in 0.2% albumin and 0.01% AcOH added CLSI standard condition, MDR S. aureus” value [5, 13] was over 20 µM. The “Minimum inhibitory concentrations, MDR S. aureus” value ([5]; CLSI broth microdilution, CAMHB with 50 mg/L Ca2+, 10 mg/L Mg2+, 5 × 10^5 CFU/ml, 18 h 37 °C, triplicate, strain KCCM 40510) was over 20 µM, the “MIC in 0.2% albumin and 0.01% AcOH added CLSI standard condition, MDR E. faecalis” value [6, 13] was over 20 µM and the “Minimum inhibitory concentrations, MDR E. faecalis” value ([6]; CLSI broth microdilution, CAMHB with 50 mg/L Ca2+, 10 mg/L Mg2+, 5 × 10^5 CFU/ml, 18 h 37 °C, triplicate, strain ATCC 51575) was over 20 µM. The “MIC in 0.2% albumin and 0.01% AcOH added CLSI standard condition, MDR P. aeruginosa” value [7, 13] was over 20 µM, the “Minimum inhibitory concentrations, MDR P. aeruginosa” value ([7]; CLSI broth microdilution, CAMHB with 50 mg/L Ca2+, 10 mg/L Mg2+, 5 × 10^5 CFU/ml, 18 h 37 °C, no visible turbidity, triplicate, strain CCARM 2180) was over 20 µM and the “MIC in 0.2% albumin and 0.01% AcOH added CLSI standard condition, MDR A. baumannii” value [8, 13] was over 20 µM. The “Minimum inhibitory concentrations, MDR A. baumannii” value ([8]; CLSI broth microdilution, CAMHB with 50 mg/L Ca2+, 10 mg/L Mg2+, 5 × 10^5 CFU/ml, 18 h 37 °C, triplicate, strain ATCC BAA-1605) was over 20 µM, the “Hemolysis percent, 25 μM” value [12]; 25 was 0.52 ±0.05% and the “Hemolysis percent, 50 μM” value [12]; 50 was 1.14 ±0.02%. The “Hemolysis percent, 100 μM” value [12]; 100 was 1.80 ±0.07%.
In the case of “RLWWKIWLK (not fully specified (C-terminus))”, the “MIC (Strain 2), S. aureus ATCC 25923” value [3] is listed as 1.4 µM and the “MIC (Strain 1), P. aeruginosa H103” value [4] is listed as 22.5 µM.

From PMC9643456, “Matching amino acids membrane preference profile to improve activity of antimicrobial peptides” (Communications Biology, 2022)
